Holding throughout (assay): relative viability (nuclei count vs DMSO), 5 days (fraction); higher = more cells survive
Compound in the test “Doramapimod + Dasatinib”: Cc1ccc(-n2nc(C(C)(C)C)cc2NC(=O)Nc2ccc(OCCN3CCOCC3)c3ccccc23)cc1 [Doramapimod] + Cc1nc(Nc2ncc(C(=O)Nc3c(C)cccc3Cl)s2)cc(N2CCN(CCO)CC2)n1 [Dasatinib] (partner 0.075 µM)
Summed up: (§1)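 Dosing by pin tool came one day after lung cancer cell lines were seeded in 1536-well plates, using either one drug or a fixed anchor-drug dose plus five library-drug doses (not always all listed) in √10 steps. After 5 days, nuclei were counted on 4× images. Relative viability is treated-well nuclei count divided by vehicle-well nuclei count, and values are medians of duplicate plates.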

Compound in the test “Doramapimod + Phenformin”: Cc1ccc(-n2nc(C(C)(C)C)cc2NC(=O)Nc2ccc(OCCN3CCOCC3)c3ccccc23)cc1 [Doramapimod] + N=C(N)NC(=N)NCCc1ccccc1 [Phenformin] (partner 250 µM)
In outline: as §1

Compound in the test “Doramapimod + AZD7762”: Cc1ccc(-n2nc(C(C)(C)C)cc2NC(=O)Nc2ccc(OCCN3CCOCC3)c3ccccc23)cc1 [Doramapimod] + NC(=O)Nc1cc(-c2cccc(F)c2)sc1C(=O)N[C@H]1CCCNC1 [AZD7762] (partner 0.2 µM)
In outline: as §1

Compound in the test “RAF265 + Decitabine”: Cn1c(Nc2ccc(C(F)(F)F)cc2)nc2cc(Oc3ccnc(-c4ncc(C(F)(F)F)[nH]4)c3)ccc21 [RAF265] + Nc1ncn([C@H]2C[C@H](O)[C@@H](CO)O2)c(=O)n1 [Decitabine] (partner 2 µM)
Summed up:
as §1

In the case of NCI-H3122, the relative viability with Doramapimod + Dasatinib (first compound 0.02 µM) came to 0.762; in the test with Doramapimod + Dasatinib (first compound 0.06325 µM) it was 0.779; in the test with Doramapimod + Dasatinib (first compound 0.2 µM), 0.78; with Doramapimod + Dasatinib (first compound 0.6325 µM) it was 0.936; with Doramapimod + Dasatinib (first compound 2 µM), 0.727; with Doramapimod + Phenformin (first compound 0.02 µM), 0.381. Also, the relative viability came to 0.423 with Doramapimod + Phenformin (first compound 0.06325 µM); 0.407 in the test with Doramapimod + Phenformin (first compound 0.2 µM); 0.38 with Doramapimod + Phenformin (first compound 0.6325 µM); 0.36 in the test with Doramapimod + Phenformin (first compound 2 µM); 1.11 with Doramapimod + AZD7762 (first compound 0.02 µM); 1.09 with Doramapimod + AZD7762 (first compound 0.06325 µM). Moreover, the relative viability is 1.05 in the test with Doramapimod + AZD7762 (first compound 0.2 µM); 1 with Doramapimod + AZD7762 (first compound 0.6325 µM); 1.12 with Doramapimod + AZD7762 (first compound 2 µM); 0.408 with RAF265 + Decitabine (first compound 0.01 µM); 0.379 with RAF265 + Decitabine (first compound 0.03162 µM); 0.429 in the test with RAF265 + Decitabine (first compound 0.1 µM). Further, the relative viability was determined as 0.304 with RAF265 + Decitabine (first compound 0.3162 µM) and 0.29 with RAF265 + Decitabine (first compound 1 µM).
As to PC-3 [JPC-3], the relative viability with Doramapimod + Dasatinib (first compound 0.02 µM) came to 1; with Doramapimod + Dasatinib (first compound 0.06325 µM) it was 1.04; with Doramapimod + Dasatinib (first compound 0.2 µM), 0.939; in the test with Doramapimod + Dasatinib (first compound 0.6325 µM), 1.05; with Doramapimod + Dasatinib (first compound 2 µM), 1.02; in the test with Doramapimod + Phenformin (first compound 0.02 µM) it was 0.506. The relative viability with Doramapimod + Phenformin (first compound 0.06325 µM) amounted to 0.475; with Doramapimod + Phenformin (first compound 0.2 µM), 0.474; with Doramapimod + Phenformin (first compound 0.6325 µM), 0.502; with Doramapimod + Phenformin (first compound 2 µM), 0.453; with Doramapimod + AZD7762 (first compound 0.02 µM), 1.12; in the test with Doramapimod + AZD7762 (first compound 0.06325 µM), 0.912. The relative viability with Doramapimod + AZD7762 (first compound 0.2 µM) turned out to be 0.882; in the test with Doramapimod + AZD7762 (first compound 0.6325 µM), 0.899; with Doramapimod + AZD7762 (first compound 2 µM) it was 0.786; in the test with RAF265 + Decitabine (first compound 0.01 µM) it was 0.924; with RAF265 + Decitabine (first compound 0.03162 µM) it was 0.785; with RAF265 + Decitabine (first compound 0.1 µM) it was 0.831. Further, the relative viability was 0.488 with RAF265 + Decitabine (first compound 0.3162 µM) and 0.655 with RAF265 + Decitabine (first compound 1 µM).
With PC-14, the relative viability was 0.282 in the test with Doramapimod + Dasatinib (first compound 0.02 µM); 0.274 with Doramapimod + Dasatinib (first compound 0.06325 µM); 0.28 with Doramapimod + Dasatinib (first compound 0.2 µM); 0.341 with Doramapimod + Dasatinib (first compound 0.6325 µM); 0.243 in the test with Doramapimod + Dasatinib (first compound 2 µM); 0.662 with Doramapimod + Phenformin (first compound 0.02 µM). In addition, the relative viability with Doramapimod + Phenformin (first compound 0.06325 µM) is 0.721; with Doramapimod + Phenformin (first compound 0.2 µM), 0.809; with Doramapimod + Phenformin (first compound 0.6325 µM), 0.762; in the test with Doramapimod + Phenformin (first compound 2 µM), 0.475; with Doramapimod + AZD7762 (first compound 0.02 µM) it was 0.521; with Doramapimod + AZD7762 (first compound 0.06325 µM), 0.539. Besides, the relative viability was found to be 0.353 with Doramapimod + AZD7762 (first compound 0.2 µM); 0.378 with Doramapimod + AZD7762 (first compound 0.6325 µM); 0.325 with Doramapimod + AZD7762 (first compound 2 µM); 0.24 in the test with RAF265 + Decitabine (first compound 0.01 µM); 0.204 with RAF265 + Decitabine (first compound 0.03162 µM); 0.231 with RAF265 + Decitabine (first compound 0.1 µM). Moreover, the relative viability with RAF265 + Decitabine (first compound 0.3162 µM) is 0.163; with RAF265 + Decitabine (first compound 1 µM), 0.226.
RERF-LC-KJ: the relative viability with Doramapimod + Dasatinib (first compound 0.02 µM) was found to be 0.88; in the test with Doramapimod + Dasatinib (first compound 0.06325 µM), 0.709; with Doramapimod + Dasatinib (first compound 0.2 µM), 0.729; with Doramapimod + Dasatinib (first compound 0.6325 µM) it was 0.769; with Doramapimod + Dasatinib (first compound 2 µM), 0.768; with Doramapimod + Phenformin (first compound 0.02 µM), 0.401. Besides, the relative viability with Doramapimod + Phenformin (first compound 0.06325 µM) amounted to 0.443; in the test with Doramapimod + Phenformin (first compound 0.2 µM), 0.395; with Doramapimod + Phenformin (first compound 0.6325 µM), 0.472; with Doramapimod + Phenformin (first compound 2 µM), 0.458; in the test with Doramapimod + AZD7762 (first compound 0.02 µM), 0.897; with Doramapimod + AZD7762 (first compound 0.06325 µM), 1.15. For the same cell line, the relative viability with Doramapimod + AZD7762 (first compound 0.2 µM) worked out at 0.961; with Doramapimod + AZD7762 (first compound 0.6325 µM), 0.703; with Doramapimod + AZD7762 (first compound 2 µM) it was 0.889; with RAF265 + Decitabine (first compound 0.01 µM), 0.815; with RAF265 + Decitabine (first compound 0.03162 µM), 0.616; with RAF265 + Decitabine (first compound 0.1 µM), 0.669. In addition, the relative viability in the test with RAF265 + Decitabine (first compound 0.3162 µM) stood at 0.583; with RAF265 + Decitabine (first compound 1 µM) it was 0.527.
For the cell line SW 900, the relative viability was 0.654 with Doramapimod + Dasatinib (first compound 0.02 µM); 0.548 with Doramapimod + Dasatinib (first compound 0.06325 µM); 0.714 with Doramapimod + Dasatinib (first compound 0.2 µM); 0.813 with Doramapimod + Dasatinib (first compound 0.6325 µM); 0.553 with Doramapimod + Dasatinib (first compound 2 µM); 0.612 with Doramapimod + Phenformin (first compound 0.02 µM). Moreover, the relative viability with Doramapimod + Phenformin (first compound 0.06325 µM) is 0.665; with Doramapimod + Phenformin (first compound 0.2 µM), 0.676; with Doramapimod + Phenformin (first compound 0.6325 µM) it was 0.76; in the test with Doramapimod + Phenformin (first compound 2 µM), 0.635; in the test with Doramapimod + AZD7762 (first compound 0.02 µM), 0.569; with Doramapimod + AZD7762 (first compound 0.06325 µM), 0.72. The relative viability with Doramapimod + AZD7762 (first compound 0.2 µM) amounted to 0.551; with Doramapimod + AZD7762 (first compound 0.6325 µM), 0.76; in the test with Doramapimod + AZD7762 (first compound 2 µM), 0.486; with RAF265 + Decitabine (first compound 0.01 µM) it was 0.51; with RAF265 + Decitabine (first compound 0.03162 µM), 0.429; with RAF265 + Decitabine (first compound 0.1 µM), 0.505. Moreover, the relative viability worked out at 0.412 with RAF265 + Decitabine (first compound 0.3162 µM) and 0.407 with RAF265 + Decitabine (first compound 1 µM).

(Values after the supplement of paper PMC10307832.)
